According to publication PMC7998669, “7-(2-Anilinopyrimidin-4-yl)-1-benzazepin-2-ones Designed by a “Cut and Glue” Strategy Are Dual Aurora A/VEGF-R Kinase Inhibitors” (Molecules, 2021):
≈ marks a conversion by molar mass, not a printed value.

What was measured:
Aurora A = molecular target: Aurora A; design: method as in PMID 27406026; details: cited from earlier work
Aurora-A = molecular target: T1, Aurora-A (Homo sapiens, UniProt O14965); assay: radiometric 33PanQinase protein kinase assay; type: biochemical; details: radiometric assay, 1 µM ATP
T1 construct: host or cells: Sf9 (baculovirus)
T1 sequence (O14965 1-403): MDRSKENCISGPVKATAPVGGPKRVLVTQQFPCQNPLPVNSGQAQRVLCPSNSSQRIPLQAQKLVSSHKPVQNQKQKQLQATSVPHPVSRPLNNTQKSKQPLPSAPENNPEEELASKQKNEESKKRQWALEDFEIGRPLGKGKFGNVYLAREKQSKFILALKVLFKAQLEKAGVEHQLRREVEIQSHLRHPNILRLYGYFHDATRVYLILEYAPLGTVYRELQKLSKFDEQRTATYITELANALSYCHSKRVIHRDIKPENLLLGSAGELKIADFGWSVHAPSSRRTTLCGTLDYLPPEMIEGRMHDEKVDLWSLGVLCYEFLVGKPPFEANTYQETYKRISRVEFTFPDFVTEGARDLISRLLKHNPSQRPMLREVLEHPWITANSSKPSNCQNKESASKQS
Protocol: (§1) The inhibitory activity of prototype 2a was determined in a panel of 24 tumor-relevant protein kinases using a radiometric assay. Only the kinases Aurora A, VEGF-R2 and VEGF-R3 were inhibited with single digit micromolar IC50 values (Table 2). Structural modifications were then implemented, particularly directed to improve inhibition of Aurora A. The so-designed congeners with small substituents at the aniline ring 2b–2n were examined for inhibition of Aurora A and of VEGF-R2, VEGF-R3 and Aurora B for comparison (Table 3).
(§2) The screening for protein kinase inhibition was performed with the radiometric ^33Panqinase activity assay at Reaction Biology Europe GmbH (Freiburg) using a robotic system (Beckmann Coulter/SagianRoboter) and 96-well plates (FlashPlates, Perkin/Elmer/NEN, Boston, MA, USA). In brief, the transfer of ^33P-phosphate into the substrate was measured with a microplate scintillation counter (Microbeta Trilux, Wallace). Protein kinases were expressed in Sf9 cells as recombinant glutathione S-transferase (GST) or polyhistidine (His)-tagged proteins in baculovirus. Isolation and purification of expressed kinases were performed with affinity chromatography by using GSH agarose (Sigma) or Ni-NTA agarose (Qiagen). The standard solution for each enzyme contained: 60 mM HEPES-NaOH (pH 7.5), 3 mM MgCl2, 3 µM sodium orthovanadate, 1.2 mM DTT, 50 µg/mL PEG20000 and 1 µM [γ-^33P]-ATP (approximately 5 × 10^5 cpm per well). In chronological order the reaction mixture was prepared: 20 µL standard solution, 5 µL ATP solution in water, 5 µL of the compound in 10% DMSO and 20 µL of enzyme/substrate mixture (50:50). Each kinase contained different substrates in different concentrations: 125 ng/50 µL Poly(Glu, Tyr)4:1 for 20 ng/50 µL IGF1-R, 25 ng/50 µL IGF1-R, 20 ng/50 µL EGF-R, 25 ng/50 µL EGF-R, 40 ng/50 µL EGF-R, 10 ng/50 µL EPHB4, 20 ng/50 µL EPHB4, 200 ng/50 µL ERBB2, 10 ng/50 µL SRC, 100 ng/50 µL FAK, 200 ng/50 µL FAK, 50 ng/50 µL VEGF-R2, 100 ng/50 µL VEGF-R3, 200 ng/50 µLTIE2; 250 ng/50 µL Poly(Glu, Tyr)4:1 for 200 ng/50 µL TIE2; 500 ng/50 µL tetra (LRRWSLG) for 50 ng/50 µL Aurora-A, 25 ng/50 µL PAK4, 25 ng/50 µL PDK1; 250 ng/50 µL tetra (LRRWSLG) for 50 ng/50 µL Aurora-B, 200 ng/50 µL Aurora-B; 125 ng/50 µL Histon H1 for 100 ng/50 µL CDK2/CycA; 250 ng/50 µL Rb-CTF for 50 ng/50 µL CDK/CycD1; 500 ng/50 µL Rb-CTF for 50 ng/50 µL CDK4/CycD1; 125 ng/50 µL Poly(ala, Glu, Lys, Tyr)6:2:5:1 for 25 ng/50 µL INS-R, 50 ng/50 µL PDGFR-beta, 100 ng/50 µL PDGFR-beta, 100 ng/50 µL FLT3, 150 ng/50 µL FLT3, 20 ng/50 µL MET, 50 ng/50 µL MET, 100 ng/50 µL MET; 250 ng/50 µL Casein for 200 ng/50 µL CK2-alpha1, 200 ng/50 µL PLK1; 1000 ng/50 µL Casein for 200 ng/50 µL PLK1, 200 ng/50 µL CK2-alpha1; 1000 ng/50 µLGSK3 (14–27) for 100 ng/50 µL AKT1; 125 ng/50 µL p53-CTM for 150 ng/50 µL CK2-alpha1, 200 ng/50 µLCK2-alpha1; 250 ng/50 µL MEK-KM for 20 ng/50 µL B-RAF-VE; autophosphorylation at ARK5, COT and SAK. After incubation (80 min, 30 °C) the reaction was stopped by adding 50 µL 2% (v/v) phosphoric acid to the reaction mixture. The microplate was washed twice with 200 µL 0.9% (v/v) saturated sodium chloride or water. The measured radioactivity, conditioned by the incorporation of [γ-^33P]-phosphate, is proportional to kinase activity. Furthermore, low control and high control were measured to determine the residual activity (%). As low controls, mixtures with substrate, but without enzyme were used to determine the unspecific binding of [γ-^33P]-phosphate to the well plate. Mixtures with enzyme, but without inhibitor were used as high controls to determine maximum enzyme activity. The IC50-values of the distinct compounds were calculated with Quattro Workflow V1.1.0.8 (Quattro Research GmbH, München, Germany). Dose response curves were generated by measurement of the residual activity of ten different inhibitor concentrations (0.1 mM, 30.0 µM, 10 µM, 3.0 µM, 1.0 µM, 0.3 µM, 0.1 µM, 30.0 nM, 10.0 nM and 3.0 nM). […]

VEGF-R2 = molecular target: T2, VEGF-R2 (Homo sapiens, UniProt P35968); assay: radiometric 33PanQinase protein kinase assay; type: biochemical; details: radiometric assay, 1 µM ATP
T2 construct: host or cells: Sf9 (baculovirus)
T2 sequence (P35968 20-1356): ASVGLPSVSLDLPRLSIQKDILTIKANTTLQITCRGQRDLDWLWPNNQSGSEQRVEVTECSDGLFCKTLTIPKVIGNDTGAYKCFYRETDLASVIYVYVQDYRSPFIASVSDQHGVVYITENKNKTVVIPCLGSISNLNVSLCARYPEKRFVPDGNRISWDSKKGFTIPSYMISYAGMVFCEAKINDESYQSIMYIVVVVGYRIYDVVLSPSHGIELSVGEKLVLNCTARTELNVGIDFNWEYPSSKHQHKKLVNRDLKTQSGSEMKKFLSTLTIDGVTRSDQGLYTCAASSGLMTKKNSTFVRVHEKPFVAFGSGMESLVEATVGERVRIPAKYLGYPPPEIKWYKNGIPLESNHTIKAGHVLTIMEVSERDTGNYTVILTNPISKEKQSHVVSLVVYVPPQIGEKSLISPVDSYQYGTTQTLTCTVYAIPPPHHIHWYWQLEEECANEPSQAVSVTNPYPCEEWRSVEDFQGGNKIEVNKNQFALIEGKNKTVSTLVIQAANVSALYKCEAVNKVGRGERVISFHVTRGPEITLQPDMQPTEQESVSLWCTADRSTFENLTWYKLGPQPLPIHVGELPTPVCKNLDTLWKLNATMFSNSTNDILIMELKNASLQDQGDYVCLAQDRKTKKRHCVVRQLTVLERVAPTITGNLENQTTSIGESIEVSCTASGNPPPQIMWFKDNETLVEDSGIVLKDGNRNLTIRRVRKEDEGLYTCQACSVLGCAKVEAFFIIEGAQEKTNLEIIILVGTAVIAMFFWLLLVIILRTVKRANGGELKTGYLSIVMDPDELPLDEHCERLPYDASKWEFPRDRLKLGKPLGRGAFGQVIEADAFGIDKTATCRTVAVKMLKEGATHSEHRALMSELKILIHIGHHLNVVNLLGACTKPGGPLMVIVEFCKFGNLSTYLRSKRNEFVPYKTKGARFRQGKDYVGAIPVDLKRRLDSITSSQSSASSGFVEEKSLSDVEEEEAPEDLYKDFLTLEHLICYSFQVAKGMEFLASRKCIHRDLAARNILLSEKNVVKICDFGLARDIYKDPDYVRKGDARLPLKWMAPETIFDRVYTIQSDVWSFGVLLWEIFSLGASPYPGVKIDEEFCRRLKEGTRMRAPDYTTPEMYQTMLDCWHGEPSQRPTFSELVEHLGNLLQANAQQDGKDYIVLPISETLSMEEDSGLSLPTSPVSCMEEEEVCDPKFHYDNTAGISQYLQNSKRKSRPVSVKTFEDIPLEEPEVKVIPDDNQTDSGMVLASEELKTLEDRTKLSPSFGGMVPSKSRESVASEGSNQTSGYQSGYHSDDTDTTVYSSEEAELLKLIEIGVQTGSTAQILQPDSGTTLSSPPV
Protocol: as §1, §2

Aurora-B = molecular target: T3, Aurora-B (Homo sapiens, UniProt Q96GD4); assay: radiometric 33PanQinase protein kinase assay; type: biochemical; details: radiometric assay, 1 µM ATP
T3 construct: host or cells: Sf9 (baculovirus)
T3 sequence (Q96GD4 whole entry): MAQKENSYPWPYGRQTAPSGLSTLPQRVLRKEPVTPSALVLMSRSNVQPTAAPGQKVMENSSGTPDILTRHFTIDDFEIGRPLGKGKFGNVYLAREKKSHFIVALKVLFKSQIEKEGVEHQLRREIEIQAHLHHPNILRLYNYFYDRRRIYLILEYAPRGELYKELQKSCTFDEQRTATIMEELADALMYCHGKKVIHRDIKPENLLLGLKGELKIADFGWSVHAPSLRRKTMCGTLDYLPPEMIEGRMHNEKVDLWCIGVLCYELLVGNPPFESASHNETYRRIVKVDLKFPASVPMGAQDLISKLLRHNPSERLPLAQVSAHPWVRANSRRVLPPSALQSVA
Protocol: as §1, §2

VEGF-R3 = molecular target: T4, VEGF-R3 (Homo sapiens, UniProt P35916); assay: radiometric 33PanQinase protein kinase assay; type: biochemical; details: radiometric assay, 1 µM ATP
T4 construct: host or cells: Sf9 (baculovirus)
T4 sequence (P35916 25-1363): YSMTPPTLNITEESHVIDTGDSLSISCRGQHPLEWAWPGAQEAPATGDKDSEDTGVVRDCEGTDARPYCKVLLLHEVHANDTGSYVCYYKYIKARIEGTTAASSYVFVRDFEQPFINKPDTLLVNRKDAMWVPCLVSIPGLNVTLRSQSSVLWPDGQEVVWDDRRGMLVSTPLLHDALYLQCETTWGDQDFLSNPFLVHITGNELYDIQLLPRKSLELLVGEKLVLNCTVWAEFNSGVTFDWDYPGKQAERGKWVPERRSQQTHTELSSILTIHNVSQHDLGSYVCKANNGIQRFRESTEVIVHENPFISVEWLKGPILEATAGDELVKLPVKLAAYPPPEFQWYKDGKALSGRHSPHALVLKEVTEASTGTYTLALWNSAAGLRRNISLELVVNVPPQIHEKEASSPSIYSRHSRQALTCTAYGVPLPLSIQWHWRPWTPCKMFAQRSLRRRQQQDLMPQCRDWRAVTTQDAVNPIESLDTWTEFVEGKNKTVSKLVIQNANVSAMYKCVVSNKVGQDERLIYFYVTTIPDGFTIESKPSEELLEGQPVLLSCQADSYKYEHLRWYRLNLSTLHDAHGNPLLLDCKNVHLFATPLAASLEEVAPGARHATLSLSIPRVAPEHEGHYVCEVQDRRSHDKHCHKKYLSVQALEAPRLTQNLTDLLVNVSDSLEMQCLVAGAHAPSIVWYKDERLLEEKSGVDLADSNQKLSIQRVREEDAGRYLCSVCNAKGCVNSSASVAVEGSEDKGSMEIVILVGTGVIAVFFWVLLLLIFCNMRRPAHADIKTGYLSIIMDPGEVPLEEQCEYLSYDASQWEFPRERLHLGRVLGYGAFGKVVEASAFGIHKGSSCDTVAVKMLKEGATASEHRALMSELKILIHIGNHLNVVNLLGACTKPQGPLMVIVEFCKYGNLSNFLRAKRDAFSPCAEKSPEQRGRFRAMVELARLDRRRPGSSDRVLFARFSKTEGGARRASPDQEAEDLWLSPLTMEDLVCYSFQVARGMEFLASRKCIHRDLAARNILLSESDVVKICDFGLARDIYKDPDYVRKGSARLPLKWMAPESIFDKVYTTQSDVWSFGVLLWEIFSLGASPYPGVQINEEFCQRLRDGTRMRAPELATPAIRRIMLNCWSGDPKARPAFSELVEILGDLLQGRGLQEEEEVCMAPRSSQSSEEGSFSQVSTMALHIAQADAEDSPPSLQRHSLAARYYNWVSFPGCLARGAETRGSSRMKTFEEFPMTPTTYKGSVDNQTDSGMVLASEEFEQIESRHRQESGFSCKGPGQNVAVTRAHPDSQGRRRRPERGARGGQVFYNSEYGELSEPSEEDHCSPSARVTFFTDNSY
Protocol: as §1, §2

[1] = kinetic solubility by nephelometry; type: physicochemical; details: phosphate buffer, 25 °C, pH 7.4, aqueous buffer, kinetic from dmso stock, phosphate buffer pH 7.4, 1% DMSO, mean of two measurements, range in brackets
Protocol: The kinetic solubility of test compounds was determined by nephelometry. Dilution series of test compounds in DMSO with eight to ten different concentrations were prepared. The dilutions were pipetted (2 µL) into the cavities of a 96 well plate (CorningTM UV-transparent flat-bottom microtiter plate; Corning Incorporated, Kennebunk, ME, USA). A phosphate buffer solution pH 7.4 (198 µL) was added, so that the DMSO concentration in the measured solutions was 1%. Three wells were filled with DMSO and phosphate buffer pH 7.4 (2:198) and measured as blank values. The 96 well plate prepared in this way was measured with the NEPHELOstar® Plus nephelometer (BMG Labtech GmbH, Ortenberg, Germany, software: Omega 5.11) at a temperature of 25 °C. Previously, the plate was shaken at 500 rpm for 10 s and the laser intensity was set to 80%. The beam focus was set to 2.50 mm. If the test substance is completely soluble, only a scattering close to the blank value is detected. As soon as a critical concentration is reached in which the kinetic solubility of the test compound is exceeded, solid particles precipitate. Undissolved particles in the sample scatter the laser beam. The intensity of the scattered light is determined, which is proportional to the number of particles in the solution. The blank values were determined and subtracted from the measured values of the test compounds. By measuring different concentrations of the test substances, different intensities of the scattered light, indicated as RNU (relative nephelometric units), were determined. Kick off curves were obtained by plotting concentrations against the RNU values. The point of intersection of the horizontal and of the ascending part of the kick-off curve indicated the kinetic solubility concentration.

Row | Compound | IC50 (Aurora-A) | solubility kinetic at 10 s [1] | also measured
2 | O=C1CCCc2cc(-c3ccnc(Nc4cccc(O)c4)n3)ccc2N1 [Compound 2m, 7-[2-(3-Hydroxyanilino)pyrimidin-4-yl]-1,3,4,5-tetrahydro-2H-1-benzazepin-2-one] | 1700 nM | 112 µM (≈ 38.8 µg/mL) | IC50 (VEGF-R2): 780 nM; IC50 (Aurora-B): 6700 nM; IC50 (VEGF-R3): 540 nM
3 | CN1CCN(CCCOc2cccc(Nc3nccc(-c4ccc5c(c4)CCCC(=O)N5)n3)c2)S1(=O)=O [Compound 14a, 7-{2-[(3-(3-(5-Methyl-1,1-dioxido-1,2,5-thiadiazolidin-2-yl)propoxy)phenyl)amino]pyrimidin-4-yl}-1,3,4,5-tetrahydro-2H-benzo[b]azepin-2-one] | 1800 nM | 25.3 µM (≈ 13.2 µg/mL) | 
4 | O=C1CCCc2cc(-c3ccnc(Nc4cccc(OCCCNS(=O)(=O)N5CCOCC5)c4)n3)ccc2N1 [Compound 14b, N-{3-[3-((4-(2-Oxo-2,3,4,5-tetrahydro-1H-benzo[b]azepin-7-yl)pyrimidin-2-yl)amino)phenoxy]-propyl}morpholine-4-sulfonamide] | 3000 nM | 19.6 µM (≈ 10.8 µg/mL) | 
5 | O=C1CCCc2cc(-c3ccnc(Nc4cccc(OCCCNS(=O)(=O)N5CCCC5)c4)n3)ccc2N1 [Compound 14c, N-{3-[3-((4-(2-Oxo-2,3,4,5-tetrahydro-1H-benzo[b]azepin-7-yl)pyrimidin-2-yl)amino)phenoxy]propyl}-pyrrolidine-1-sulfonamide] | 4500 nM | 25.3 µM (≈ 13.6 µg/mL) | 
6 | O=C1CCCc2cc(-c3ccnc(Nc4cccc(OCCCNS(=O)(=O)N5CCC5)c4)n3)ccc2N1 [Compound 14d, N-{3-[3-((4-(2-Oxo-2,3,4,5-tetrahydro-1H-benzo[b]azepin-7-yl)pyrimidin-2-yl)amino)phenoxy]propyl}-azetidine-1-sulfonamide] | 1500 nM | 25.2 µM (≈ 13.2 µg/mL) | 
7 | COc1ccc(Nc2nccc(-c3ccc4c(c3)CCCC(=O)N4)n2)cc1OCCCN1CCN(C)S1(=O)=O [Compound 14e, 7-(2-((4-Methoxy-3-(3-(5-methyl-1,1-dioxido-1,2,5-thiadiazolidin-2-yl)propoxy)phenyl)amino)pyrimidin-4-yl)-1,3,4,5-tetrahydro-2H-benzo[b]azepin-2-one] | 1100 nM | 21.4 µM (≈ 11.8 µg/mL) | 
8 | COc1ccc(Nc2nccc(-c3ccc4c(c3)CCCC(=O)N4)n2)cc1OCCCNS(=O)(=O)N1CCOCC1 [Compound 14f, N-{3-[2-Methoxy-5-((4-(2-oxo-2,3,4,5-tetrahydro-1H-benzo[b]azepin-7-yl)pyrimidin-2-yl)amino)phenoxy]-propyl}morpholine-4-sulfonamide] | 2500 nM | 25 µM (≈ 14.6 µg/mL) | 
9 | COc1ccc(Nc2nccc(-c3ccc4c(c3)CCCC(=O)N4)n2)cc1OCCCNS(=O)(=O)N1CCC1 [Compound 14g, N-{3-[2-Methoxy-5-((4-(2-oxo-2,3,4,5-tetrahydro-1H-benzo[b]azepin-7-yl)pyrimidin-2-yl)amino)phenoxy]-propyl}azetidine-1-sulfonamide] | 820 nM | 34.2 µM (≈ 18.9 µg/mL) | 
12 | COc1cc(Nc2ncc3c(n2)-c2ccc(Cl)cc2C(c2c(F)cccc2OC)=NC3)ccc1C(=O)O [alisertib] |  |  | IC50 (Aurora A): 1.2 nM
